#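 These data come from cells grown in 96-well plates and exposed to compound for 48 hours at five concentrations. GI50: concentration for 50% inhibition of growth. TGI marks complete inhibition of growth.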
# Columns and labels:
# Experiment in all cases: NCI anticancer screen, dose series, 48 h
# A498 renal = system: A498 renal
# SK-MEL-28 melanoma = system: SK-MEL-28 melanoma
# SK-MEL-5 melanoma = system: SK-MEL-5 melanoma
# SNB-19 CNS = system: SNB-19 CNS
# SNB-75 CNS = system: SNB-75 CNS
# SR leukemia = system: SR leukemia
# TK-10 renal = system: TK-10 renal
# UACC-257 melanoma = system: UACC-257 melanoma
Structure (SMILES),GI50 (A498 renal) [µM],TGI (A498 renal) [µM],GI50 (SK-MEL-28 melanoma) [µM],TGI (SK-MEL-28 melanoma) [µM],GI50 (SK-MEL-5 melanoma) [µM],TGI (SK-MEL-5 melanoma) [µM],GI50 (SNB-19 CNS) [µM],TGI (SNB-19 CNS) [µM],GI50 (SNB-75 CNS) [µM],TGI (SNB-75 CNS) [µM],GI50 (SR leukemia) [µM],TGI (SR leukemia) [µM],GI50 (TK-10 renal) [µM],TGI (TK-10 renal) [µM],GI50 (UACC-257 melanoma) [µM],TGI (UACC-257 melanoma) [µM]
COC(=O)c1cc2c([nH]c3ccccc32)c(-c2nc3cc(N(S(=O)(=O)c4ccc(C)cc4)S(=O)(=O)c4ccc(C)cc4)c(OC)cc3cc2CO)n1,> 100,> 100,> 100,> 100,> 100,> 100,75,> 100,33.5,98.7,1.28,3.48,> 100,> 100,> 100,> 100
Cc1ccc(S(=O)(=O)NC(CCCCN)C(=O)CCl)cc1 (stereo unspecified),–,–,> 100,> 100,47.8,> 100,47.8,> 100,> 100,> 100,–,–,90.5,> 100,> 100,> 100
COCC(O)CN1C(N)=NC(O)C1O (stereo unspecified),–,–,–,> 100,–,> 100,–,> 100,–,> 100,–,> 100,–,> 100,–,> 100
CCN(CC)CCCC(C)NC(=S)N/N=C(\C)c1ccccn1 (stereo unspecified),2.57,97,16.9,> 100,1.7,4.2,7.83,> 100,7.55,> 100,2.45,> 100,21.6,> 100,3.16,31.2
C/C=C\C(C)=C/C(C)C(=O)CC(O)CC1CC(=O)NC(=O)C1 (stereo unspecified),–,> 100,–,> 100,–,> 100,–,> 90.6,–,68.2,–,> 63.1,–,> 100,–,> 100
Cc1nc2cc(NC(=O)CN3CCN(CCN4C(=O)c5cccc6cccc(c56)C4=O)CC3)ccc2s1,5.63,38.3,11.1,23.1,2.73,10.9,6.23,21.4,3.51,21.4,1.19,> 100,7.91,21.7,5.83,> 100
COc1ccc(/C(C)=C(\c2ccc(Cl)cc2)c2ccc(OCCN3CCCCC3)cc2)cc1F,–,–,2.67,5.3,2.76,5.1,5.37,> 16.7,4.29,13.1,1.8,> 16.7,3.49,9.12,3.1,7.04
Cc1cc(N2CCOCC2)nc(N(CCNc2ccnc3cc(Cl)ccc23)Cc2cccs2)n1,–,–,1.76,3.7,1.59,2.96,4.24,76.2,1.98,5.25,1.47,3.94,2.35,6.57,1.88,3.6
COc1ccc(/C=C2\CN(Cc3cn(CCCNc4ccnc5cc(Cl)ccc45)nn3)C/C(=C\c3ccc(OC)cc3)C2=O)cc1,2.2,32.8,14,28,10.5,22.3,15.7,36.1,3.89,19.7,1.69,7.47,16.5,30.1,8.28,23.3
O=C1C2=C(Nc3cc([N+](=O)[O-])ccc3N2)OC1c1c[nH]c2ccc(COc3ccccc3)cc12 (stereo unspecified),–,> 100,–,> 100,–,> 100,–,> 100,–,65.9,–,> 100,–,> 100,–,> 100
COc1cc(C2C3=C(COC3=O)N(CCO)c3cc4c(cc32)CCC4)cc(OC)c1OC (stereo unspecified),0.0722,1.76,1.24,> 32.5,0.0956,0.451,0.0946,6.38,0.123,> 32.5,0.0692,> 32.5,1.56,> 32.5,–,> 32.5
Cn1c(N)cc(=O)nc1N,–,> 100,–,> 100,–,> 100,–,> 100,–,> 100,–,> 100,–,> 100,–,–
Nc1nc(N)c2nn(-c3ccc(C(=O)O)cc3)nc2n1,–,> 100,–,> 100,–,> 100,–,> 100,–,> 100,–,–,–,> 100,–,> 100
COc1ccc(C(=O)CC(Cl)=C(Cl)Cl)cc1,> 100,> 100,16,37.2,33.8,> 100,32.4,> 100,–,–,–,–,23.9,59.9,34.4,> 100
O=C(CN1C(=O)c2ccccc2C1=O)NC1(C(=O)O)CCCC1,–,> 100,–,> 100,–,> 100,–,> 100,–,> 100,–,> 100,–,> 100,–,> 100
Nc1cc2[nH]c(=O)c3cc(Cl)ccc3c2cc1Cl,–,–,–,> 100,–,27,–,37.2,–,61.8,–,> 100,–,33.7,–,53.4
CCCC1C2=C(C(=O)OC2=O)C2C(CC)CC3=C(C(=O)OC3=O)C12 (stereo unspecified),–,> 100,–,> 100,–,> 100,–,> 100,–,> 100,–,> 100,–,> 100,–,> 100
CC1SC(c2cccc(Oc3ccccc3)c2)N(CCc2cccs2)C1=O (stereo unspecified),1.21,2.46,1.42,2.78,0.607,1.87,1.64,9.01,1.3,3.71,0.585,4.19,1.59,4.28,1.25,3.3

Structure (SMILES),GI50 (A498 renal) [µM],TGI (A498 renal) [µM],GI50 (SK-MEL-28 melanoma) [µM],TGI (SK-MEL-28 melanoma) [µM],GI50 (SK-MEL-5 melanoma) [µM],TGI (SK-MEL-5 melanoma) [µM],GI50 (SNB-19 CNS) [µM],TGI (SNB-19 CNS) [µM],GI50 (SNB-75 CNS) [µM],TGI (SNB-75 CNS) [µM],GI50 (SR leukemia) [µM],TGI (SR leukemia) [µM],GI50 (TK-10 renal) [µM],TGI (TK-10 renal) [µM],GI50 (UACC-257 melanoma) [µM],TGI (UACC-257 melanoma) [µM]
COc1cc2c(c(OC)c1OC)-c1c(c3ccc([N+](=O)[O-])cc3c(=O)n1CCCN=[N+]=[N-])C2=O,11.9,29.6,> 100,> 100,> 100,> 100,29.7,98.3,–,–,–,–,13.1,33.1,0.0793,11.9
Oc1ccc(-c2nc(-c3ccc4oc5ccc(-c6[nH]c(-c7ccc(O)cc7)nc6-c6ccccc6)cc5c4c3)c(-c3ccccc3)[nH]2)cc1,12.2,26,7.39,40,4.46,75.5,19.1,83.5,8.69,67.6,1.98,5.17,6.34,19.2,10.3,33.6
COc1ccc(C2CC(c3ccc(OC)c(OC)c3)=NN2C(=O)c2cc(OC)c(OC)c(OC)c2)cc1 (stereo unspecified),–,–,68.5,> 100,0.558,4.83,4.67,> 100,2.08,> 100,2.07,> 100,5.26,> 100,> 31.5,> 100
Cc1nn(-c2ccccc2)c2ncc3c(c12)C(=O)N(Cc1ccccc1)C3=O,3.51,21.8,> 100,> 100,> 100,> 100,12.7,> 100,2.23,6.64,5.86,> 100,–,–,> 100,> 100
CCCCCCn1c(=N)n(CC(O)COc2cccc(C)c2)c2ccccc21 (stereo unspecified),1.8,7.35,1.87,3.51,1.77,3.2,4.94,20,2.54,12.2,1.76,5.84,3.71,12.8,2,4.35
CCOC(=O)c1ccccc1NC(c1ccccc1)c1ccc2cccnc2c1O (stereo unspecified),1.15,8.05,3.19,> 100,2.04,6.74,2.83,> 100,2.6,89.8,2.02,10.3,5.52,> 100,2.98,21.5
COc1cc2c(cc1Nc1nc(Nc3ccsc3C(N)=O)c3cc[nH]c3n1)N(C(=O)CN(C)C)CCC2,0.5,4.13,1.8,5.69,0.383,3.2,2.58,> 25,1.49,3.92,0.0123,3.44,1.46,6.27,0.0558,3.67
CC(C)(O)C1CC(=O)C(C)(C2C(O)CC3(C)C4CC=C5C(CCC(O)C5(C)C)C4(C)C(=O)CC23C)O1 (stereo unspecified),–,> 100,–,> 100,–,> 100,–,> 100,–,> 100,–,–,–,> 100,–,> 100
C#Cc1cccc(NC(=O)Nc2cccc(NC(=O)CCl)c2)c1,1.22,> 82.5,> 82.5,> 82.5,15.7,36.2,> 82.5,> 82.5,8.67,> 82.5,12.9,> 82.5,38,> 82.5,> 82.5,> 82.5
O=C1/C(=C/c2ccc([N+](=O)[O-])s2)Oc2ccc(Cl)cc21,1.74,4.91,0.336,0.881,0.343,0.86,0.512,1.55,0.486,1.74,0.204,0.73,0.372,26.9,0.63,2.25
O=C1c2cccc3cc4ccccc4c(c23)C(=O)N1CCCNCCNCCCN1C(=O)c2cccc3cc4ccccc4c(c23)C1=O,–,1.91,–,–,–,1.39,–,2.23,–,1.48,–,1.51,–,2.18,–,2.25
CCCCCCCCCCCCOC1C(C(COC2OC(C(O)CO)C3OC(C)(C)OC23)OC(=O)Nc2ccc([N+](=O)[O-])cc2)OC2OC(C)(C)OC21 (stereo unspecified),2.63,6.09,9.84,22.7,1.71,3.11,9.43,21.8,3.64,16.1,–,–,2.68,7.29,3.53,9.35
COC(=O)[C@@H](C)C[C@H](Cc1ccccc1)NC(=O)c1cccc([C@@H](C[C@H](C(C)C)N(C)C(=O)[C@@H](NC(=O)[C@H]2CCCCN2C)C(C)C)OC(C)=O)n1,–,–,–,–,< 0.00167,0.0252,< 0.00167,> 16.7,< 0.00167,> 16.7,< 0.00167,> 16.7,–,> 16.7,0.0118,> 16.7
N#Cc1c(-c2ccc(Cl)cc2)n([O-])c2ccccc2[n+]1=O,–,–,44.8,> 100,15.9,31.7,20.6,48.6,21.4,39.5,–,–,11.7,24.6,18.2,34.4
CN(C)CCCn1c2c(c3ccc([N+](=O)[O-])cc3c1=O)C(=O)c1ccccc1-2,–,–,> 100,> 100,3.79,16.6,19.1,> 100,5.24,19.3,1.98,> 100,15.3,73.7,38.1,> 100
O=C(/C=C\c1ccc(Cl)c(Cl)c1)c1ccccc1,12.4,25.2,13.9,27.3,16.7,30.9,10.6,23.6,11.6,23.8,2.75,9.22,–,–,12.2,24.9
NCCN.O=N[O-].O=N[O-].O=N[O-].O=N[O-].[Co+3].[K+],> 100,> 100,> 100,> 100,> 100,> 100,> 100,> 100,> 100,> 100,–,–,> 100,> 100,> 100,> 100
